Experimental data from US20120238603A1, “TREATMENT FOR INFLAMMATORY BOWEL DISEASE” (SANOFI, priority 2009, published 2012).
Like-named read-outs stand apart in the source and are kept apart here.

Tests used:
[1] = test system: mild to moderate UC; settings: cited from earlier work
[2] = molecular target: T1, mouse MCPT-6 (mouse orthologue of human beta-tryptase) (Mus musculus, UniProt P21845); assay: Inhibition of recombinant mouse MCPT-6 (Ki); assay type: biochemical; settings: recombinant enzyme
T1 sequence (P21845 32-276): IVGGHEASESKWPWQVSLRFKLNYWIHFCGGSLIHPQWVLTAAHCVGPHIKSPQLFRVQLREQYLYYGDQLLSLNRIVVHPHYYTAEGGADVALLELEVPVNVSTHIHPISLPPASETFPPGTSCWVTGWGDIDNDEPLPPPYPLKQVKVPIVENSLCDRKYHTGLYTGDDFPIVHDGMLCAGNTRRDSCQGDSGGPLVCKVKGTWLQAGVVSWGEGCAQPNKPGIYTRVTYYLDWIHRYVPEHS

[3] = test system: TNBS-induced ulcerative colitis; assay: Murine TNBS-induced ulcerative colitis; assay type: in vivo, male balb/mice; settings: for % protective effect vs. TNBS alone: Colon wt/length (TNBS-719)/(TNBS-ctl) / % protective effect vs. TNBS alone: Diarrhea / % protective effect vs. TNBS alone: Dilation / % protective effect vs. TNBS alone: MPO / % protective effect vs. TNBS alone: Macroscopic Score / % protective effect vs. TNBS alone: Ulceration / % protective effect vs. TNBS alone: Body wt d 4 (% Δ719-% ΔTNBS)/(% Δ Ctl-% ΔTNBS) / % protective effect vs. TNBS alone: Tissue TNFα: day 4; for % protective effect vs. TNBS alone: Body wt d 4 (% Δ719-% ΔTNBS)/(% Δ Ctl-% ΔTNBS): oral once daily
Procedure: The effect of the compound of Formula I in murine TNBS-induced ulcerative colitis. TNBS (Trinitro benzene sulfonic acid) is known to induce colitis in some strains of mice and rats by haptenating colonic proteins, resulting in an immune response. This model resembles multiple features, both histologic and immunologic, of human IBD (particularly Crohn's disease).
In some experiments, male balb/mice were pre-sensitized with 1% TNBS administered epicutaneously on day −7. On Day 0, TBNS (2.5 mg/100 mcl) in 35% ethanol or 100 mg/kg TNBS in 50% ethanol, was administered intrarectally, and colitis-relevant readouts were measured 4 days later. The compound of Formula I as hydrochloride salt or as fumarate salt was administered orally in 1% carboxymethylcellulose-Tween. Sulfazalazine was given at 100 mg/kg. Both compounds were given once daily.
• 0 No damage • 1 Hyperemia without ulcers • 2 Hyperemia and bowel wall thickening without ulcers • 3 One site of ulceration without bowel wall thickening • 4 Two or more sites of ulceration/inflammation • 5 0.5 cm inflammation and major damage • 6-10 1 cm or more of major damage (0.5 cm=1 point) • 0/1 Diarrhea +/− • 0/1/2 No dilatation/partial dilatation/dilatation in the whole length

[4] = molecular target: human beta-tryptase (Homo sapiens, UniProt P20231); assay: Inhibition of recombinant human beta-tryptase (Ki); assay type: biochemical; settings: recombinant enzyme
[5] = molecular target: b-tryptase (Homo sapiens, UniProt P20231); settings: reported selective b-tryptase inhibitor at low doses; cited from earlier work
[6] = test system: TNBS-induced colitis; settings: rat; intra-colonic injections of NM 10-9, 10-11 and 10-13 M daily for 6 days; compared with 5-ASA 25 mg/Kg; cited from earlier work
[7] = first Formula I / sulfazalazine column pair, sulfazalazine 100 mg/kg
[8] = second Formula I / sulfazalazine column pair, sulfazalazine 100 mg/kg

Chain of b-tryptase (P20231 31-275): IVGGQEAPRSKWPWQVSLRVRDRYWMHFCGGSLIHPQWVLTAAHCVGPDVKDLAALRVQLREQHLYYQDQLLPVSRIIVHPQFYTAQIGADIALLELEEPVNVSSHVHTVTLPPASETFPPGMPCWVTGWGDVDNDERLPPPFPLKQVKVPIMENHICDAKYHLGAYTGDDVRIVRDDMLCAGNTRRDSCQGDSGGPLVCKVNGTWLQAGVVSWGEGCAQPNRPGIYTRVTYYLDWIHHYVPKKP
Chain of human beta-tryptase (P20231 31-275): as above

Row | Compound | % protective effect vs. TNBS alone: Body wt d 4 (% Δ719-% ΔTNBS)/(% Δ Ctl-% ΔTNBS) [3, 7] [%] | % protective effect vs. TNBS alone: Colon wt/length (TNBS-719)/(TNBS-ctl) [3, 7] [%] | % protective effect vs. TNBS alone: Diarrhea [3, 7] [%] | % protective effect vs. TNBS alone: Dilation [3, 7] [%] | % protective effect vs. TNBS alone: MPO [3, 7] [%] | % protective effect vs. TNBS alone: Macroscopic Score [3, 7] [%] | % protective effect vs. TNBS alone: Tissue TNFα [3, 7] [%] | % protective effect vs. TNBS alone: Ulceration [3, 7] [%] | % protective effect vs. TNBS alone: Body wt d 4 (% Δ719-% ΔTNBS)/(% Δ Ctl-% ΔTNBS) [3, 8] [%] | % protective effect vs. TNBS alone: Colon wt/length (TNBS-719)/(TNBS-ctl) [3, 8] [%] | % protective effect vs. TNBS alone: Diarrhea [3, 8] [%] | % protective effect vs. TNBS alone: Dilation [3, 8] [%] | % protective effect vs. TNBS alone: MPO [3, 8] [%] | % protective effect vs. TNBS alone: Macroscopic Score [3, 8] [%] | % protective effect vs. TNBS alone: Ulceration [3, 8] [%] | further results
1 | NC(N)=Nc1ccc(CN2CCN(C(=O)O[C@@H]3CO[C@H]4[C@@H]3OC[C@H]4OC(=O)N3CCN(Cc4ccc(N=C(N)N)cc4)CC3)CC2)cc1 [APC-2059] |  |  |  |  |  |  |  |  |  |  |  |  |  |  |  | safety and tolerability ([1]; 20 mg, SC, BID for 28 days on background of oral 5-ASA): safe and well tolerated; patients meeting remission criteria (DAI=0) ([1]; 20 mg, SC, BID, 28 days, 5/56): 9%; patients meeting primary EP as responded (DAI≦3) ([1]; 20 mg, SC, BID, 28 days, 16/56): 29%; patients meeting improved criteria (DAI≦3 or decreased by 4 points from baseline) ([1]; 20 mg, SC, BID, 28 days, 27/56): 49%; response rate, post hoc ([1]; baseline DAI score 7-9, 6/33): 18%; response rate, post hoc ([1]; baseline DAI scores 6-7, 10/22): 45%; response, post hoc ([1]; one patient, baseline DAI=11): did not respond
2 | COCCn1cc(C(=O)N2CCC(c3cc(CN)ccc3F)CC2)c2c(OC(F)(F)F)ccc(F)c21 [Formula I, [4-(5-Aminomethyl-2-fluorophenyl)piperidine-1-yl][7-fluoro-1-(2-methoxyethyl)-4-trifluoromethoxy-1H-indol-3-yl]methanone] | 20 | 41 | 50 | 55 | 13 | 51 | 50 | 50 | 27 | 23 | 57 | 33 | 19 | 30 | 21 | Ki [2]: 920 nM; % protective effect vs. TNBS alone: Colon wt/length (TNBS-719)/(TNBS-ctl) ([3]; Formula I 3 mpk): −10%; % protective effect vs. TNBS alone: Diarrhea ([3]; Formula I 3 mpk): 50%; % protective effect vs. TNBS alone: Dilation ([3]; Formula I 3 mpk): 25%; % protective effect vs. TNBS alone: MPO ([3]; Formula I 3 mpk): 0%; % protective effect vs. TNBS alone: Macroscopic Score ([3]; Formula I 3 mpk): 25%; % protective effect vs. TNBS alone: Ulceration ([3]; Formula I 3 mpk): 23%; % protective effect vs. TNBS alone: Colon wt/length (TNBS-719)/(TNBS-ctl) ([3]; Formula I 10 mpk): 16%; % protective effect vs. TNBS alone: Diarrhea ([3]; Formula I 10 mpk): 50%; % protective effect vs. TNBS alone: Dilation ([3]; Formula I 10 mpk): 38%; % protective effect vs. TNBS alone: MPO ([3]; Formula I 10 mpk): 0%; % protective effect vs. TNBS alone: Macroscopic Score ([3]; Formula I 10 mpk): 27%; % protective effect vs. TNBS alone: Ulceration ([3]; Formula I 10 mpk): 25%; decrease of macroscopic damage ([3]; doses ranging from 3-30 mg/kg, oral, once daily, hydrochloride or fumarate salt): 20-50%; protective effects in multiple aspects of experimental colitis ([3]; oral, once daily, versus sulfazalazine positive control): compared well with the sulfazalazine positive control; Ki [4]: 38 nM
3 | N=C(N)c1ccc2cc(OC(=O)c3ccc(N=C(N)N)cc3)ccc2c1 [Nafamostat mesilate] |  |  |  |  |  |  |  |  |  |  |  |  |  |  |  | Ki [5]: 0.095 nM; colonic mucosal inflammation [6]: significantly attenuated
4 | O=C(O)c1cc(/N=N/c2ccc(S(=O)(=O)Nc3ccccn3)cc2)ccc1O [sulfazalazine, reference compound] | 46 | 29 | 50 | 33 | 44 | 51 | 50 | 53 | 10 | 23 | 43 | 8 | 21 | 14 | 11 | 
